Reference: ChEMBL document CHEMBL3792336, “Synthesis and antitumor activity of ATB-429 derivatives containing a nitric oxide-releasing moiety” (Bioorg Med Chem Lett, 2016)

Key:
[1] = tested on: HT-29; test: Antiproliferative activity against human HT-29 cells at 30 uM after 72 hrs by MTT assay; format: functional; settings: HT-29, 72 h
[2] = Antiproliferative activity against human PANC1 cells at 30 uM after 72 hrs by MTT assay; format: functional; settings: PANC-1, 72 h
[3] = tested on: MCF7; test: Antiproliferative activity against human MCF7 cells at 30 uM after 72 hrs by MTT assay; format: functional; settings: MCF7, 72 h
[4] = tested on: A549; test: Antiproliferative activity against human A549 cells at 30 uM after 72 hrs by MTT assay; format: functional; settings: A549, 72 h
[5] = Antiproliferative activity against human DU145 cells at 30 uM after 72 hrs by MTT assay; format: functional; settings: DU-145, 72 h
[6] = Antiproliferative activity against human HL60 cells at 30 uM after 72 hrs by MTT assay; format: functional; settings: HL-60, 72 h
[7] = tested on: HT-29; test: Antiproliferative activity against human HT-29 cells after 72 hrs by MTT assay; format: functional, cell-based; settings: HT-29, 72 h
[8] = Antiproliferative activity against human PANC1 cells after 72 hrs by MTT assay; format: functional, cell-based; settings: PANC-1, 72 h
[9] = Antiproliferative activity against human HL60 cells after 72 hrs by MTT assay; format: functional, cell-based; settings: HL-60, 72 h
[10] = tested on: MCF7; test: Antiproliferative activity against human MCF7 cells after 72 hrs by MTT assay; format: functional, cell-based; settings: MCF7, 72 h
[11] = tested on: A549; test: Antiproliferative activity against human A549 cells after 72 hrs by MTT assay; format: functional, cell-based; settings: A549, 72 h
[12] = Antiproliferative activity against human DU145 cells after 72 hrs by MTT assay; format: functional, cell-based; settings: DU-145, 72 h

Q: What does the source list for CC(C)(C)OC(=O)Nc1ccc(OCCOc2no[n+]([O-])c2S(=O)(=O)c2ccccc2)c(C(=O)Oc2ccc(-c3cc(=S)ss3)cc2)c1?
A: inhibition at 30 µM [1]: 103%; inhibition at 30 µM [2]: 97.1%; inhibition at 30 µM [3]: 83.1%; inhibition at 30 µM [4]: 88.5%; inhibition at 30 µM [5]: 61.6%; inhibition at 30 µM [6]: 84.6%; IC50 [7]: 256 nM; IC50 [8]: 1450 nM

Q: With O=C(Nc1ccc(OC(=O)CCCO[N+](=O)[O-])c(C(=O)Oc2ccc(-c3cc(=S)ss3)cc2)c1)Nc1ccc(F)cc1F as the molecule, how does the inhibition at 30 µM [1] read?
A: -6.41%

Q: What about the inhibition at 30 µM [2] of the same molecule?
A: -14.8%

Q: And the inhibition at 30 µM [3]?
A: -6.87%

Q: What about the inhibition at 30 µM [4] of the same molecule?
A: -28%

Q: What about the inhibition at 30 µM [5] of the same molecule?
A: -7.47%

Q: What about the inhibition at 30 µM [6] of the same molecule?
A: 0.43%

Q: Which results are given for Nc1ccc(OCCOc2no[n+]([O-])c2S(=O)(=O)c2ccccc2)c(C(=O)Oc2ccc(-c3cc(=S)ss3)cc2)c1?
A: IC50 [9]: 1880 nM; inhibition at 30 µM [1]: 102%; inhibition at 30 µM [2]: 96.6%; inhibition at 30 µM [3]: 90.1%; inhibition at 30 µM [4]: 100%; inhibition at 30 µM [5]: 93.8%; inhibition at 30 µM [6]: 92.3%; IC50 [7]: 769 nM; IC50 [8]: 1860 nM; IC50 [10]: 2680 nM; IC50 [11]: 4170 nM; IC50 [12]: 1270 nM

Q: Which inhibition at 30 µM [1] does the source give for CC(C)(C)OC(=O)Nc1ccc(OCCCOc2no[n+]([O-])c2S(=O)(=O)c2ccccc2)c(C(=O)Oc2ccc(-c3cc(=S)ss3)cc2)c1 here?
A: 103%

Q: And the inhibition at 30 µM [2]?
A: 97.4%

Q: What about the inhibition at 30 µM [3] of the same molecule?
A: 25.2%

Q: And the inhibition at 30 µM [4]?
A: -23.8%

Q: And the inhibition at 30 µM [5]?
A: 67.9%

Q: And the inhibition at 30 µM [6]?
A: 84%

Q: And the IC50 [7]?
A: 926 nM

Q: And the IC50 [8]?
A: 3020 nM

Q: What does the source list for O=C(Nc1cccc(C(F)(F)F)c1)Nc1ccc(OC(=O)CCCO[N+](=O)[O-])c(C(=O)Oc2ccc(-c3cc(=S)ss3)cc2)c1?
A: inhibition at 30 µM [1]: 13.2%; inhibition at 30 µM [2]: -5.71%; inhibition at 30 µM [3]: -6.78%; inhibition at 30 µM [4]: -22.1%; inhibition at 30 µM [5]: -14.2%; inhibition at 30 µM [6]: 14.1%

Q: Which inhibition at 30 µM [1] does the source give for COc1ccc(NC(=O)Nc2ccc(OC(=O)CCCO[N+](=O)[O-])c(C(=O)Oc3ccc(-c4cc(=S)ss4)cc3)c2)cc1 here?
A: 12.1%

Q: And the inhibition at 30 µM [2]?
A: 2.19%

Q: And the inhibition at 30 µM [3]?
A: 16%

Q: What about the inhibition at 30 µM [4] of the same molecule?
A: 3.19%

Q: And the inhibition at 30 µM [5]?
A: -6.39%

Q: And the inhibition at 30 µM [6]?
A: 8.3%

Q: Which inhibition at 30 µM [1] does the source give for Nc1ccc(OCCOCCOc2no[n+]([O-])c2S(=O)(=O)c2ccccc2)c(C(=O)Oc2ccc(-c3cc(=S)ss3)cc2)c1 here?
A: 101%

Q: What about the inhibition at 30 µM [2] of the same molecule?
A: 97.1%

Q: And the inhibition at 30 µM [3]?
A: 90%

Q: And the inhibition at 30 µM [4]?
A: 62.8%

Q: And the inhibition at 30 µM [5]?
A: 63.2%

Q: What about the inhibition at 30 µM [6] of the same molecule?
A: 84.4%

Q: And the IC50 [7]?
A: 5440 nM

Q: What about the IC50 [8] of the same molecule?
A: 8000 nM

Q: And the IC50 [10]?
A: 11900 nM

Q: Which results are given for O=C(Nc1ccc(F)cc1)Nc1ccc(OC(=O)CCCO[N+](=O)[O-])c(C(=O)Oc2ccc(-c3cc(=S)ss3)cc2)c1?
A: inhibition at 30 µM [1]: 6.92%; inhibition at 30 µM [2]: -12.9%; inhibition at 30 µM [3]: 19.1%; inhibition at 30 µM [4]: -27.2%; inhibition at 30 µM [5]: 15.3%; inhibition at 30 µM [6]: 8.68%

Q: For Nc1ccc(OCCCOc2no[n+]([O-])c2S(=O)(=O)c2ccccc2)c(C(=O)Oc2ccc(-c3cc(=S)ss3)cc2)c1, which inhibition at 30 µM [1] is on record?
A: 103%

Q: And the inhibition at 30 µM [2]?
A: 97.5%

Q: And the inhibition at 30 µM [3]?
A: 92.1%

Q: And the inhibition at 30 µM [4]?
A: 100%

Q: And the inhibition at 30 µM [5]?
A: 94.8%

Q: What about the inhibition at 30 µM [6] of the same molecule?
A: 87.3%

Q: And the IC50 [7]?
A: 559 nM

Q: What about the IC50 [8] of the same molecule?
A: 971 nM

Q: What about the IC50 [10] of the same molecule?
A: 3050 nM

Q: What about the IC50 [11] of the same molecule?
A: 3280 nM

Q: What about the IC50 [12] of the same molecule?
A: 2240 nM

Q: For Nc1ccc(OC(=O)CCCO[N+](=O)[O-])c(C(=O)Oc2ccc(-c3cc(=S)ss3)cc2)c1, which inhibition at 30 µM [1] is on record?
A: -13.3%

Q: What about the inhibition at 30 µM [2] of the same molecule?
A: -10.5%

Q: What about the inhibition at 30 µM [3] of the same molecule?
A: -5.55%

Q: And the inhibition at 30 µM [4]?
A: -18.4%

Q: What about the inhibition at 30 µM [5] of the same molecule?
A: -7.67%

Q: And the inhibition at 30 µM [6]?
A: 8.73%

Q: For O=C(Nc1cccc(Cl)c1)Nc1ccc(OC(=O)CCCO[N+](=O)[O-])c(C(=O)Oc2ccc(-c3cc(=S)ss3)cc2)c1, which inhibition at 30 µM [1] is on record?
A: 21.5%

Q: And the inhibition at 30 µM [2]?
A: -17.3%

Q: What about the inhibition at 30 µM [3] of the same molecule?
A: 6.1%

Q: And the inhibition at 30 µM [4]?
A: -23.3%

Q: And the inhibition at 30 µM [5]?
A: 5.49%

Q: And the inhibition at 30 µM [6]?
A: 10.9%

Q: Which inhibition at 30 µM [1] does the source give for Cc1cccc(NC(=O)Nc2ccc(OC(=O)CCCO[N+](=O)[O-])c(C(=O)Oc3ccc(-c4cc(=S)ss4)cc3)c2)c1 here?
A: 9.56%

Q: And the inhibition at 30 µM [2]?
A: -14.2%

Q: What about the inhibition at 30 µM [3] of the same molecule?
A: 13.9%

Q: And the inhibition at 30 µM [4]?
A: -19.8%

Q: And the inhibition at 30 µM [5]?
A: -19.3%

Q: And the inhibition at 30 µM [6]?
A: 7.34%

Q: For CC(C)(C)OC(=O)Nc1ccc(OCCOCCOc2no[n+]([O-])c2S(=O)(=O)c2ccccc2)c(C(=O)Oc2ccc(-c3cc(=S)ss3)cc2)c1, which inhibition at 30 µM [1] is on record?
A: 103%

Q: And the inhibition at 30 µM [2]?
A: 97.9%

Q: What about the inhibition at 30 µM [3] of the same molecule?
A: 63.1%

Q: What about the inhibition at 30 µM [4] of the same molecule?
A: 18.7%

Q: And the inhibition at 30 µM [5]?
A: 54.7%

Q: And the inhibition at 30 µM [6]?
A: 84.5%

Q: And the IC50 [7]?
A: 536 nM

Q: What about the IC50 [8] of the same molecule?
A: 2800 nM

Q: For COc1cc2/c(=N/c3ccc(Br)cc3F)nc[nH]c2cc1OCC1CCN(C)CC1 [VANDETANIB], which IC50 [9] is on record?
A: 1490 nM

Q: And the IC50 [7]?
A: 1920 nM

Q: And the IC50 [8]?
A: 4110 nM

Q: And the IC50 [10]?
A: 3540 nM

Q: And the IC50 [11]?
A: 2630 nM

Q: And the IC50 [12]?
A: 1970 nM
